We go through 48 compounds from ChEMBL document CHEMBL1201862, “PubChem BioAssay data set” (2004).

Test [1] has as its system Streptococcus sp. 'group A'. As to the kind of experiment: Streptococcus pyogenes SK(-)GAS viability under kanamycin – luminescence, BacTiterGlo, confirmation, counter-screen for streptokinase expression inhibitor project, dose response (AID 1900). Format: functional, organism-based.
For test [2], the target named is T1, Streptokinase A (Streptococcus pyogenes serotype M1, UniProt P10520).
T1 sequence (P10520 whole entry): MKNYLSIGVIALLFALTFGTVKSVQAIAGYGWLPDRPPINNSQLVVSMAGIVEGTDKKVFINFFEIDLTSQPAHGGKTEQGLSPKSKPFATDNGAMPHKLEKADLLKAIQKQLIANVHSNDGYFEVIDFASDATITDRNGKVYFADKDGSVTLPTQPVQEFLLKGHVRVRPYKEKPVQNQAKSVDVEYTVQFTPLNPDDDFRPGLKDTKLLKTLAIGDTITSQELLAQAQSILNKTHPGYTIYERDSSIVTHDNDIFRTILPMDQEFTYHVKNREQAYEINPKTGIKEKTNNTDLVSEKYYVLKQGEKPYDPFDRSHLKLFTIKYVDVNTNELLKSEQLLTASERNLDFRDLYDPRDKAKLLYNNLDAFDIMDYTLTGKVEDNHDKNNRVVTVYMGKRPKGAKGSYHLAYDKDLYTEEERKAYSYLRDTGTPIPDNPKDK
The test is described as follows: viability-normalized secreted streptokinase activity reduction – plasminogen activation absorbance, OD405, dose response (AID 1914).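 Also: secreted streptokinase activity via plasminogen activation per viability signal from cell pellet.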 Format: functional, Streptococcus pyogenes M1 GAS.

Test [3] deals with Streptococcus. The test is described as follows: GAS UMAA2166 growth inhibition – luminescence, BacTiterGlo, counter-screen for streptokinase expression inhibitor project, dose response (AID 1915).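 Also: potency for reduction of bacterial viability or growth.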 Format: functional, organism-based. In general terms: Counterscreens check selectivity or assay interference.
Test [4] is described as follows: Trypanosoma cruzi growth suppression in host cells – NIH3T3 host cells, beta-gal luminescence, confirmation (AID 2044).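 Also: intracellular parasites grown in NIH/3T3 mouse fibroblasts as host cells; luminescent beta-galactosidase reporter signal from transgenic T. cruzi replicating inside host cells; inhibitors lower the luminescence signal.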 Format: functional, cell-based.
Test [5] can be described thus: NIH3T3 cell viability loss – ATP luminescence, mouse fibroblasts, counter-screen, dose response (AID 2010).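 Also: cells exposed to compound for about 90 hours before reading.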 Format: functional, cell-based.
The target of test [6] is T2, Heat shock factor protein 1 (Mus musculus, UniProt P38532).
T2 sequence (P38532 whole entry): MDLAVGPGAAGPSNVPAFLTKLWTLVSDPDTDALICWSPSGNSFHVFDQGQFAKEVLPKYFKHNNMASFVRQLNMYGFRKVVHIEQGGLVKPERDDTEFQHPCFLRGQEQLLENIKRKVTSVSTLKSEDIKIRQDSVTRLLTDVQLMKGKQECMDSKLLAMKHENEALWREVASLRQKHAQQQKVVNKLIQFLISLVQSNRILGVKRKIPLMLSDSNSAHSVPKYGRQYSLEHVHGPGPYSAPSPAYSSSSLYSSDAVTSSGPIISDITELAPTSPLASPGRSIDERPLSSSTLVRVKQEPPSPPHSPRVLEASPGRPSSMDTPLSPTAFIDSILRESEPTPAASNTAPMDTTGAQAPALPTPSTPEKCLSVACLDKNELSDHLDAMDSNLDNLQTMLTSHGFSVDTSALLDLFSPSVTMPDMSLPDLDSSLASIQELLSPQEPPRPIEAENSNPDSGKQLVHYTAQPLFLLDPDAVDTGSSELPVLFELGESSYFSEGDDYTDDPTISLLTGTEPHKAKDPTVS
The test is described as follows: decrease of HSF1-responsive luciferase luminescence – cell-based, NIH3T3, dose retest, confirmation (AID 2382).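 Also: NIH3T3 fibroblasts with HSF1-driven luciferase reporter stressed by proteasome inhibitor MG132; luminescence from HSF1-driven luciferase expression after 8 hours of MG132 stress.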 Format: functional.

The target in test [7] is T3, Rac GTPase-activating protein 1 (Homo sapiens, UniProt Q9H0H5).
T3 sequence (Q9H0H5 whole entry): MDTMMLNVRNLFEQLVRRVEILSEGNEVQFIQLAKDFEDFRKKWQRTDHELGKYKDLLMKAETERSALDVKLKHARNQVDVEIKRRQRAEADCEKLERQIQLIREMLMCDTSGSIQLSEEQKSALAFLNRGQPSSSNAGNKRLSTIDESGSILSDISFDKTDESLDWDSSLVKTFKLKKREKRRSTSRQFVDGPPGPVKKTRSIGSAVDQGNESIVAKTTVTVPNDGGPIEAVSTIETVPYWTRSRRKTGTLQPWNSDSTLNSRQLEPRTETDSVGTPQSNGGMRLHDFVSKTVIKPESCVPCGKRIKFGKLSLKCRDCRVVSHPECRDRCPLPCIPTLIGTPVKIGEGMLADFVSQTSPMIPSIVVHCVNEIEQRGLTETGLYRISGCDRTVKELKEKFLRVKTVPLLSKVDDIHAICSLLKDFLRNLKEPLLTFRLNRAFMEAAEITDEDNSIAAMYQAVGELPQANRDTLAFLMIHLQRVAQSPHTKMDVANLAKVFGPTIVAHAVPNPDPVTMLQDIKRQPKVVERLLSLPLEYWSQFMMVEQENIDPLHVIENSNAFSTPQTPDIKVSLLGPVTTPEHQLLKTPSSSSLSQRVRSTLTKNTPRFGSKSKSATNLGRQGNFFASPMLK
The test is described as follows: blockers of MgcRacGAP-driven Rac1 GTP hydrolysis – biochemical, ADP Hunter fluorescence, primary and confirmatory, confirmation (AID 624330). Format: functional.

The source made the active and inactive calls. Rule as the data show it, for most assays here: actives have a measured EC50 and inactives only a lower limit.

As a reminder, the EC50 is the concentration that produces a half-maximal response. Take `O=C(/C=C/c1ccccc1)NC(=S)NNC(=O)c1ccco1`: the figures for the 50% effective concentration (EC50) in test [1], in test [2] and in test [3] were 3.86 µM (active), > 150 µM (not active) and 11.2 µM (active), respectively.
With `CC(C)(C)c1ccc(OCC(=O)Nc2ccc(C(=O)Nc3ccccc3C(=O)O)cc2)cc1`, the EC50 in test [1] was 4.27 µM (active); in test [3], 22.9 µM (active).
Turning to `CCOc1ccc(C2Nc3ccc4ccccc4c3-c3c2c(=O)oc2ccccc32)cc1` (configuration not stated), the half-maximal effective concentration (EC50) in test [4] is 1.26 µM (active); in test [5], > 60 µM (not active).
On to `O=C(c1cccc([N+](=O)[O-])c1)N1CCc2ccccc21`, for which the EC50 in test [6] is > 195 µM (not active).
The same measure, in the same setting: for `Cc1cccc(C)c1NC(=O)N1C(C(=O)O)CSC1C(=O)O` (configuration not stated) the value was > 195 µM (not active).
As for `COc1cccc(CCNCc2cccc(C(F)(F)F)c2)c1`, the EC50 in test [4] was 0.97 µM (active); in test [5], > 30 µM (not active).
`CCOC(=O)C1=C(N)OC2=C(C(=O)CC(C)(C)C2)C1c1ccccc1OCC#N` (configuration not stated): in test [6], the 50% effective concentration (EC50) was > 195 µM (not active).
Regarding `CC12CCC(C(=O)N3CCN(C(c4ccccc4)c4ccccc4)CC3)(OC1=O)C2(C)C` (configuration not stated), the concentration giving a half-maximal response (EC50) in test [4] was 1.56 µM (active); in test [5] it was > 60 µM (inconclusive).
For `Cc1onc(-c2c(Cl)cccc2Cl)c1C(=O)NC1C(=O)N2C1SC(C)(C)C2C(=O)O` (configuration not stated), the EC50 in test [1] and in test [3] was < 0.06 µM (active) throughout.
For the compound `NC(=O)COC(=O)c1cc(O)nc2ccccc12`, in test [6], the EC50 is > 195 µM (not active).
In general, IC50 refers to the concentration that inhibits the measured activity by half. `CCN(CC)c1ccc(NC(=O)c2ccc3c(c2)OCO3)cc1`: the IC50 in test [7] was 52.9 µM (active).
As for `CCN(CC)CCCNC(=O)C1CCC(CNS(=O)(=O)c2ccc(Cl)cc2)CC1` (configuration not stated), the EC50 in test [6] was > 195 µM (not active).
Regarding `CSc1ccccc1NC(=O)CNCCCN1CCOCC1`, in test [7], the 50% inhibitory concentration (IC50) was 81.9 µM (active).
As for `COc1cc(NC(=O)c2ccco2)c(OC)cc1NC(=O)Nc1cccc(Cl)c1`, the values for the half-maximal effective concentration (EC50) in test [4] and in test [5] were 1.79 µM (active) and > 60 µM (not active), respectively.
Regarding `CC(=O)N(C)C1=C(O)C(=O)c2ccccc2C1=O`, the concentration giving a half-maximal response (EC50) in test [6] was > 195 µM (not active).
As to `c1cc2c(cc1CN1CCN(C3CCCCCC3)CC1)OCO2`, in test [7], the concentration for half-maximal inhibition (IC50) was 91.9 µM (active).
In the case of `CC(=O)Nc1cc(C(=O)N(C)Cc2ccco2)ccc1Sc1ccc(C)cc1`, in test [6], the half-maximal effective concentration (EC50) was > 195 µM (not active).
In the case of `Cc1nn(Cc2ccccc2Cl)c2sc(C(=O)Nc3ccccc3N3CCOCC3)cc12`, the EC50 is 45.4 µM (active) in test [1], > 150 µM (not active) in test [2] and > 150 µM (not active) in test [3].
For `CSCc1nnc2n1-c1ccc(Cl)cc1C(c1ccccc1)=NC2`, in test [6], the EC50 is listed as > 195 µM (not active).
For the compound `CCn1c(COc2ccc(C)cc2)nnc1SCC(=O)Nc1ccc2c(c1)OCCO2`, in test [6], the EC50 is given as > 195 µM (not active).
As for `CCCn1c(NC(=O)c2ccccc2Br)nc2ccccc21`, the concentration for a half-maximal effect (EC50) was 10.2 µM (active) in test [1], > 150 µM (not active) in test [2] and 30.5 µM (active) in test [3].
On the same counts, the results for `COc1ccc(C2CC(c3cccs3)=NN2C(=O)c2ccc(Br)o2)cc1` (configuration not stated) are 6.42 µM (active), > 150 µM (not active) and 27.4 µM (active).
On to `COc1ccc(N2CCN(C(=O)CCCN3C(=O)c4cccc5cccc(c45)C3=O)CC2)cc1`, for which the EC50 was 2.45 µM (active) in test [4] and > 60 µM (inconclusive) in test [5].
For `O=[N+]([O-])c1ccc(OCCN2CCNCC2)cc1`, in that order: 0.132 µM (active) and > 60 µM (not active).
On the same counts, the results for `Cc1ccccc1OCCC(=O)Nc1ccc(S(=O)(=O)N(C)C2CCN(C)CC2)cc1` are 0.324 µM (active) and > 30 µM (not active).
For `CCc1cccc(CC)c1N=C(S)N1CCn2cccc2C1c1cccnc1` (configuration not stated), in test [6], the EC50 is > 195 µM (not active).
Same read-out and setting: for `COc1ccccc1C(O)(C(=O)N(NC(C)=O)c1ccccc1)c1ccccc1OC` the value was > 195 µM (not active).
With `CC1CN(CCOCCOc2ccccc2-c2ccccc2)CC(C)O1` (configuration not stated), the concentration for half-maximal inhibition (IC50) in test [7] was 87.5 µM (active).
Regarding `COc1cc2c(cc1NC(=S)Nc1cccc3ccccc13)oc1ccccc12`, the 50% inhibitory concentration (IC50) in test [7] was 70.2 µM (active).
Take `CCCCCCCCN1[C@@H](CC(=O)OCC)c2ccc(C(F)(F)F)cc2S1(=O)=O`: the results for the EC50 in test [4] and in test [5] were 0.87 µM (active) and 37.8 µM (active), respectively.
With `O=C1[C@H]2[C@@H](c3ccc(Cl)cc3)N3C(=O)N(c4cccc(F)c4)C(=O)[C@@]3(Cc3ccc(Cl)cc3)[C@H]2C(=O)N1C1CCCCC1`, the EC50 in test [4] was 1.21 µM (active); in test [5], > 30 µM (not active).
`CCC(N=C(S)NCc1ccccc1)C(=O)O` (configuration not stated): the 50% effective concentration (EC50) in test [6] is recorded as > 195 µM (not active).
Turning to `O=C(CN1CCN(Cc2ccccc2)CC1)Nc1ccc(F)c(F)c1`, the concentration for half-maximal inhibition (IC50) in test [7] was 73.9 µM (active).
Same read-out and setting: for `CCN1CCN(CC(=O)Nc2nc3ccc(OC)cc3s2)CC1` the value was 74.3 µM (active).
With `Cc1cccc(NC(S)=NC(NC(=O)OCc2ccccc2)C(Cl)(Cl)Cl)c1` (configuration not stated), the results for the EC50 in test [4] and in test [5] were 3.39 µM (active) and > 60 µM (not active), respectively.
As for `O=S(=O)(c1ccc2ccccc2c1)N1CCN(C2CCN(Cc3ccccc3)CC2)CC1`, the IC50 in test [7] was 108 µM (active).
For `CN1CCN(c2ccc([N+](=O)[O-])c(N3CCCCC3)c2)CC1`, the 50% effective concentration (EC50) in test [4] is 0.661 µM (active); in test [5], > 30 µM (not active).
In the case of `CC/C(=N\c1ccc(N)cc1)C1=C(O)C(C(=O)OC)C(C)(C)CC1=O` (configuration not stated), the IC50 in test [7] was 6.8 µM (active).
The same measure, in the same setting: for `COc1ccc(NC(=O)CNCc2cccs2)c(OC)c1` the value was 284 µM (active).
As to `CCCCNC(=O)C(c1ccc(OCC(=O)OC)c(C(=O)OC)c1)N(CCc1c[nH]c2ccccc12)C(=O)CCCCCN1C(=O)NC(c2ccc(-c3ccccc3)cc2)C(C(=O)OCc2ccccc2)=C1C` (configuration not stated), the EC50 in test [6] is > 195 µM (not active).
Turning to `C=CCc1c(C)nc(-c2ccccc2)nc1N/N=C/c1ccncc1`, the EC50 in test [4] is 0.941 µM (active); in test [5], 6.59 µM (active).
Regarding `CN1CCN(/C=N/C2=NN(c3cccc(C(F)(F)F)c3)CC2)CC1`, the 50% inhibitory concentration (IC50) in test [7] was 33.9 µM (active).
For the compound `Cc1ccc(S(=O)(=O)N2CCN(CC(=O)N/N=C\c3ccncc3)CC2)cc1`, in test [6], the EC50 is > 195 µM (not active).
Regarding `CC/C(=N\NS(=O)(=O)c1ccc(C)cc1)c1ccco1`, the EC50 in test [6] is > 195 µM (not active).
As for `CCCOc1ccc(CC(=O)N/N=C\c2ccc(F)cc2)cc1`, the EC50 in test [6] is listed as > 195 µM (not active).
Same read-out and setting: for `CC(O/N=C\c1ccccc1O)C(=O)Nc1ccccc1C(=O)N1CCOCC1` (configuration not stated) the value was > 195 µM (not active).
On to `O=C1c2ccccc2C2=Nc3ccccc3SC(c3cccc(F)c3)C12` (configuration not stated), for which the 50% effective concentration (EC50) was 1.27 µM (active) in test [4] and > 60 µM (not active) in test [5].
On to `CCN1CCN(C(=O)N[C@@H](C(=O)N[C@@H]2C(=O)N3[C@@H]2SC(C)(C)[C@@H]3C(=O)O)c2ccccc2)C(=O)C1=O` [PIPERACILLIN SODIUM], for which the results for the EC50 in test [1] and in test [3] were 0.361 µM (active) and 0.746 µM (active), respectively.
